From patent publication EP4752149A1, “OXYGEN-CONTAINING FUSED TRICYCLIC DERIVATIVE, AND PREPARATION METHOD THEREFOR AND USE THEREOF” (Tuojie Biotech (Shanghai) Co., Ltd., priority 2023, dated 2025)

How the values were obtained:
[1] = tested on: Triple-negative breast cancer cells (HCC1806); experiment: Inhibitory activity against triple-negative breast cancer cells (HCC1806), CTG cell viability; assay type: cell-based; conditions: Homo sapiens, 168 h, 7 days with compound
Procedure: Triple-negative breast cancer cells (HCC1806, Nanjing Cobioer Biosciences Co., Ltd.) were cultured using an RPMI 1640 culture medium containing 10% FBS in a cell incubator (37 °C, 5% CO2). On day one, the cells were plated in a 384-well plate at a cell concentration of 200 cells/well and cultured overnight in an incubator. On day two, the cells were treated with compounds. The highest compound concentration was 10 µM and was diluted 3-fold to obtain 9 concentrations, and the final concentration of DMSO was 0.2%. After the cells were cultured in the incubator for another 7 days, the cell viability was tested using a CTG Cell Viability Detection Reagent (MCE); the testing method was consistent with the method provided by the kit. Data were processed using XLfit, and IC50 was calculated. [formula] X: the logarithm of the compound concentration; Y: inhibition%. Table 4. The IC50 (nM) of compounds of the present disclosure against HCC1806

[2] = tested on: Human non-small cell lung cancer cells (A549); experiment: Inhibitory activity against human non-small cell lung cancer cells (A549), CTG cell viability; assay type: cell-based; conditions: Homo sapiens, 120 h, 5 days with compound
Procedure: Human non-small cell lung cancer cells (A549) were cultured using an F12K culture medium containing 10% FBS in a cell incubator (37 °C, 5% CO2). On day one, the cells were plated in a 384-well plate at a cell concentration of 300 cells/well and cultured overnight in an incubator. On day two, the cells were treated with compounds. The highest compound concentration was 10 µM and was diluted 3-fold to obtain 9 concentrations, and the final concentration of DMSO was 0.2%. After the cells were cultured in the incubator for another 5 days, the cell viability was tested using a CTG Cell Viability Detection Reagent; the testing method was consistent with the method provided by the kit. Data were processed using XLFit, and IC50 was calculated. [formula] X: the logarithm of the compound concentration; Y: % inhibition. Table 10. The IC50 (nM) of a compound of the present disclosure against A549

CDK4/CycD1 = molecular target: T1, CDK4/CycD1 (Homo sapiens, UniProt P11802); experiment: Activity against cyclin-dependent kinase CDK4/CycD1 (Caliper EZ Reader mobility shift); assay type: biochemical; conditions: 1 h at room temperature; highest concentration 1 µM
T1 construct: purchased Invitrogen PR8064A
T1 sequence (P11802 whole entry): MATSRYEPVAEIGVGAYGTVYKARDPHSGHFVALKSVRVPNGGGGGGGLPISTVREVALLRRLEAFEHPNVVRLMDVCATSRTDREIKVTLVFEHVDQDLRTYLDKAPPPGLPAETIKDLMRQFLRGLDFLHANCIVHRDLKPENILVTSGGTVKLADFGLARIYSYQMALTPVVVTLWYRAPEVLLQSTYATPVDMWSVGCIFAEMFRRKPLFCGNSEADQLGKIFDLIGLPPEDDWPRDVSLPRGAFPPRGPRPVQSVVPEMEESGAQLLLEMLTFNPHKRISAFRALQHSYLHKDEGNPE
T1 sequence (P24385 whole entry partner): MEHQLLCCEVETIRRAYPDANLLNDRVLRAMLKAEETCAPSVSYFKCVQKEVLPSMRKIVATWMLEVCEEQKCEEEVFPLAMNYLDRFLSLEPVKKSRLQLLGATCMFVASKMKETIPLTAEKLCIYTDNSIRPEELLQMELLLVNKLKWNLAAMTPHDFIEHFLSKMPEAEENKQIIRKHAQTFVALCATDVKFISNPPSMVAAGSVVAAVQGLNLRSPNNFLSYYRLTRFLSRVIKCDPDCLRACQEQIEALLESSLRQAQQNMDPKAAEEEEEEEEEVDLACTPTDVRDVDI
Procedure: The test compounds (the highest concentration was 1 µM) were added using Echo 650 and serially diluted 3-fold to obtain a total of 9 concentration points. The assay plate was sealed and centrifuged at 1000 g for 1 min. 2.5× enzymes were prepared in a 1× kinase buffer (50 mM HEPES, pH 7.5, 0.0015% Brij-35, […]), and the 2.5× enzymes (10 µL) were added to the 384-well assay plate. The plate was centrifuged at 1000 g for 30 s and left to stand at room temperature for 10 min. 2.5× substrate and ATP mixtures were prepared in the 1× kinase buffer, and the 2.5× substrate and ATP mixtures (10 µL) were added to start reactions. The assay plate was centrifuged at 1000 g for 30 s, sealed, and incubated at room temperature for 1 h. 25 µL of a stop solution reagent (100 mM HEPES, pH 7.5, 0.015% Brij-35, 0.2% Coating Reagent #3, 50 mM EDTA) was added.
Conversion rate data were read on a CaliperEZ Reader. The conversion rate data were copied from the CaliperEZ Reader. The conversion rates were converted to inhibition rate data. Inhibition% = (max−conversion)/(max−min) × 100, [formula] where "min" is the reading of a control sample well to which no enzyme was added for reaction; "max" is the reading of a control well to which DMSO was added.
IC50 values were obtained by fitting using XLFit excel add-in version 5.4.0.8. Y = Bottom + (Top−Bottom)/(1+((IC50/X))^(∧)HillSlope). [formula] Table 6. […]

IC50 [1]: 150 nM
IC50 [2]: 236 nM
IC50 (CDK4/CycD1): 3.8 nM
Structure (SMILES): C[C@H]1COc2c(-c3nc(Nc4ccc(N5CCOCC5=O)cc4F)ncc3Cl)cc(F)c3nc(C(C)(C)O)n1c23 [Example 1, (S)-4-(4-((5-Chloro-4-(8-fluoro-2-(2-hydroxypropan-2-yl)-3-methyl-3,4-dihydro-5-oxa-1,2a-diazaacenaphthylen-6-yl)pyrimidin-2-yl)amino)-3-fluorophenyl)morpholin-3-one]
